Two compounds from BindingDB's records for doi:10.1007/s00044-011-9882-z (n/a, 2012) can be followed below.

What is called IC50 is the point on the concentration scale where inhibition reaches its midpoint. High values mean lower potency, low ones higher potency.

This assay deals with Transcription factor Sp1 (Homo sapiens, UniProt P08047). In words: Inhibition of Sp1 (unknown origin) by luciferase reporter gene assay.
Chain of Transcription factor Sp1 (P08047 whole entry): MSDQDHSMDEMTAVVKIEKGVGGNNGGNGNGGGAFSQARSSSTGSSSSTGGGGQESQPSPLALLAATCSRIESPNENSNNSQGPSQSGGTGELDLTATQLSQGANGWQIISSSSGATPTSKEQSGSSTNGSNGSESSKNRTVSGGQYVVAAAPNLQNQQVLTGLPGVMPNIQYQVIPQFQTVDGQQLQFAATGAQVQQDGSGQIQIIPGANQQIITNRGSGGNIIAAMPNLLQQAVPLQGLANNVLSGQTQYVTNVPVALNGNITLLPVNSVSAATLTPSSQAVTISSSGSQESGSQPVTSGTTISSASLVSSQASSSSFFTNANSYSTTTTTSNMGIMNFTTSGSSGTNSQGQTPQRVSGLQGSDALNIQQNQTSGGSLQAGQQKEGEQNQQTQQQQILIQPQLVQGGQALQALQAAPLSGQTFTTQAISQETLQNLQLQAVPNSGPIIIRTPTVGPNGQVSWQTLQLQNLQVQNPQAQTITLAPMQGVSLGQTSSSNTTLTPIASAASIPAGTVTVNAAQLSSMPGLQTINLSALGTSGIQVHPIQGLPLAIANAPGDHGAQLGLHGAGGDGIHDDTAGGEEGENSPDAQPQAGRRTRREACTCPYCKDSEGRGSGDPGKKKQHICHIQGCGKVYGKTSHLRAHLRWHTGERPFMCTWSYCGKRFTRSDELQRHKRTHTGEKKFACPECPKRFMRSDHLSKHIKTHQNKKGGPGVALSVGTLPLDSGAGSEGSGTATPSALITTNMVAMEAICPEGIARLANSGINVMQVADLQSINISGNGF

Take `O=C(N/N=C/c1ccccc1)c1ccc(F)cc1`: 57.7 µM corresponded to half-maximal inhibition (IC50). The result for `C=C1C(=O)O[C@H]2[C@H]1CC/C(C)=C/CC[C@@]1(C)O[C@@H]21` [PARTHENOLIDE] reads 30.2 µM.
